Test results reported in PubChem BioAssay (NCI).
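Interpolation was linear, between the two tested concentrations surrounding the appropriate level; five concentrations were tested over 48 hours in 96-well plates. The concentration for full growth arrest is given as TGI.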

Key:
Assay in all cases: DTP human tumour cell line panel, 48 h
[1] = tested on: SK-OV-3 ovarian
[2] = tested on: NCI-H23 lung
[3] = tested on: MDA-MB-435
[4] = tested on: HCT-15 colon
[5] = tested on: 786-0 renal
[6] = tested on: TK-10 renal
[7] = tested on: HOP-92 NSCLC
[8] = tested on: CAKI-1 renal
[9] = tested on: ACHN renal
[10] = tested on: UACC-62 melanoma
[11] = tested on: MALME-3M melanoma
[12] = tested on: NCI-H226 lung
[13] = tested on: SNB-75 CNS
[14] = tested on: SNB-19 CNS
[15] = tested on: HCC-2998 colon
[16] = tested on: A549 NSCLC
[17] = tested on: HT29 colon
[18] = tested on: CCRF-CEM leukemia
[19] = tested on: UACC-257 melanoma
[20] = tested on: SR leukemia

Row | Structure (SMILES) | TGI [1] [µM] | TGI [2] [µM] | TGI [3] [µM] | TGI [4] [µM] | TGI [5] [µM] | TGI [6] [µM] | TGI [7] [µM] | TGI [8] [µM] | TGI [9] [µM] | TGI [10] [µM] | TGI [11] [µM] | TGI [12] [µM] | TGI [13] [µM] | TGI [14] [µM] | TGI [15] [µM] | TGI [16] [µM] | TGI [17] [µM] | TGI [18] [µM] | TGI [19] [µM] | TGI [20] [µM]
1 | [O-][N+]1=C(c2ccccc2)/C(=C2/C(c3ccccc3)=[N+]([O-])c3ccccc32)Cc2ccccc21 | > 100 | 34.7 | 55.1 | 36.7 | 34.9 | 49.2 | 32.9 | 47.4 | 50.6 | 28.7 | 40.8 | 42.2 | 47.1 | 44.3 | 29.5 | 35.2 | 35.9 | 60.1 | 40.9 | 
2 | COC(=O)N1C2C(C[C@@]1(C)C(=O)OC)c1ccccc1N2S(=O)(=O)c1ccccc1 (stereo partly drawn) | > 100 | > 100 | > 100 |  | > 100 | > 100 | > 100 | > 100 | > 100 | > 100 | > 100 | > 100 | > 100 | > 100 | > 100 | > 100 | > 100 | > 100 | > 100 | > 100
3 | COC1=C(OC)C(=O)C(C/C=C/c2c(Cl)nc3sccn23)=C(C)C1=O | 33.8 | 7.76 | 23.6 | > 100 | 49.2 | 34.9 |  | 50.7 | 36.1 | 29.1 | 17 |  |  | 27.6 | 39.3 | 33.3 | 46.9 | 41.1 | 5.36 | 66
4 | CC(=O)O[C@H]1C(=O)[C@@]2(C)[C@H]([C@H](OC(=O)c3ccccc3)[C@]3(O)C[C@H](OC(=O)[C@H](O)[C@@H](NC(=O)OC(C)(C)C)c4ccco4)C(C)=C1C3(C)C)[C@]1(OC(C)=O)CO[C@@H]1C[C@@H]2O | 7.38 | > 40.9 | 2.27 | 12.3 | > 50 | 29 | 43.5 | > 50 | > 48.1 | > 33.4 | > 47 |  | < 0.005 | > 50 | 0.00901 | > 50 | 0.24 | 35.7 | > 47.2 | > 29
5 | COc1c(N2CCCCC2)c2c(=O)c3ccccc3oc2c2c3ccccc3n(C)c12 | > 100 | > 100 | > 100 | > 100 | > 100 | > 100 | > 100 | > 100 | > 100 | > 100 | > 100 | > 100 | > 100 | > 100 | > 100 | > 100 | > 100 | > 100 | > 100 | 
6 | CC(NNC(=S)N1CCCC1)c1cccnn1 (stereo not drawn) | > 65.5 | > 100 | > 100 | > 100 | > 100 | > 31.5 |  | > 100 | 4.68 | 7.45 | > 100 | > 26.5 | > 28.7 | > 100 | > 100 |  | > 100 | > 100 |  | > 100
7 | C[n+]1ccc2/c(=C\C#N)c3ccccc3n21 | 83 | 40.7 | 63 | > 100 | > 100 | 63.9 | 63.2 | > 100 | > 100 | > 100 | 44.6 | > 100 |  | 30.1 | 50.6 | 52.7 | 72.1 | 51.4 | 13.9 | 56.5
8 | CCN(CC)CCC(=O)Nc1ccc2sc3ccccc3c(=O)c2n1 | 36.7 | 43.8 | 26.4 | 62.3 | 35.1 | 57.5 | 0.0992 | 28.8 | 38.1 | 35 | 39.1 |  | 21.6 | 53.1 | 42.7 | 37 | > 100 | 75.6 | 37.5 | > 100
9 | CC(=O)c1ccc(Nc2nc3ccccc3c3occc23)cc1 | 58.8 | 46.6 | 9.69 | 33.8 | 21.7 | 35.8 | 49.8 | 16.1 | 60.2 | 41.3 | 63.4 | 98 |  | > 100 | 28.4 | > 100 | 17.3 | 67.3 | 31.6 | 18.4
10 | CC(=O)Oc1ccc(C)c2c1[C@H]1CC[C@]3(C)[C@@H](OC(C)=O)CC[C@H]3[C@@H]1CC2 |  | 34.7 | 32.9 | 35.2 | 39.4 | 67.9 | 30.9 |  | 29.8 | 34.5 | 30.4 | 54.8 | 54.5 | 32.6 | 32.8 | 50.8 | 33.5 | 55.2 | 35.6 | > 100
11 | O=C1Nc2n[nH]c(=S)n2NC12c1ccccc1-c1ccccc12 | > 100 | > 100 | 37.4 | > 100 | > 100 | > 100 | > 100 | > 100 | > 100 | 68.1 | > 100 | > 100 | > 100 | > 100 | > 100 | > 100 | > 100 |  | 48.4 | > 100
12 | Cc1c2c(n3c(nc4ccccc43)c1C#N)NCC2 | > 10 | > 10 | > 10 | > 10 | > 10 | > 10 | > 10 | > 10 | > 10 | > 10 | > 10 | > 10 | > 10 | > 10 |  | > 10 | > 10 | > 10 | > 10 | > 10
